According to a melting point compilation (Tetko et al.; mined from patent text by program, amines drawn as free bases though some values may be those of a salt):

| SMILES | melting point [°C] |
| --- | --- |
| CCN1C(=O)CCc2cc(Sc3cccc([C@@]4(O)CCO[C@@H](C)C4)c3)ccc21 | 148 to 149 |
| Cc1ccc2ncn(-c3nnn[nH]3)c(=O)c2c1 | 285 to 286 |
| Cc1cc(Cl)c(-n2nc(C)n(C(F)F)c2=O)cc1O | 154 to 156 |
| COC1=C(OC)C(=O)C(CN2CCOCC2)=C(C)C1=O | 60 to 62 |
| CCCCC1=C(C=Cc2ccc(N(CCCC)CCCC)cc2OC)CC(C)(C)CC1=CC=CC1=C(C#N)C(=C(C#N)C#N)OC1(c1ccccc1)C(F)(F)F (stereo not drawn) | 109 to 113 |
| CC(C)C(C(=O)O)N(C)S(=O)(=O)c1ccc(-c2ccc(NC(=O)c3cc4ccccc4o3)cc2)cc1 (stereo not drawn) | 237 to 239 |
| COCC1(C)CCOc2ccc(/C=C/c3ccc(C(=O)O)cc3)cc21 (stereo not drawn) | 209 to 210 |
| c1coc(-c2ccnc3[nH]c4ccccc4c23)c1 | > 220 |
| COC(=O)C1=C(C)NC(C)=C(C(=O)OC)C1c1ccc(F)c(Nc2c(NCCCN3CCC(c4cccc(OC)c4)CC3)c(=O)c2=O)c1 | 205 to 207 |
| CCOC(=O)Cc1csc(NC(=O)C(F)(F)F)n1 | 119 to 121 |
| Cc1c[nH]c2c(CCC#N)cccc12 | 146 to 148 |
| O=C(NCc1ccc(F)cc1)c1ccnc(N2CCN(CC3CC3)C2=O)c1 | 150 to 151 |
| CC1CCCCC1Nc1c(C(=O)O)cnn2cccc12 (stereo not drawn) | 195 |
| O=C(O)c1cc(Cl)c(OCc2ccc(Cl)cc2)c(Cl)c1 | 215 to 220 |
| CC(C)(C)OC(=O)N1CCN(c2ncnc3c2cnn3Cc2cccc(Br)n2)CC1 | 126 to 128 |
| CNC(=O)C(=NOC)c1ccccc1COc1ncc(C)cc1Br | 104 to 105 |
| C/C(=C\C(C)O)c1ccc(C2CCCCCC2)cc1 (stereo not drawn) | 64 to 65 |
| O=C(O)c1ccc(-c2ccc(C(=O)O)c(C(=O)O)c2)cc1C(=O)O | 295 to 302 |
| O=S(=O)(Nc1nc(O)ncc1F)c1ccccc1 | 221 to 223 |
| COC(=O)c1cnc(C(=O)OC)c([N+](=O)[O-])c1 | 82 to 86 |
| CC(C)COC(=O)Sc1ccc(-c2ccccc2)cc1 | 78 to 79 |
| Cc1oc(-c2ccccc2)nc1CCOc1ccc(CON=C(CCC(=O)O)c2ccccc2)cc1 | 106 to 107 |
| C=CCCOc1ccc(C[C@H](NC(=O)OC(C)(C)C)C(=O)N[C@@H](CC(C)C)C(=O)O)cc1 | 68 to 70 |
| CCCCCCCCCCCCCCOc1ccc(CC(=O)Nc2ccc(-n3ccnc3C)cc2)cc1 | 106 to 109 |
| COc1ccc(S(=O)(=O)c2cnc(C)nc2Nc2c(C)cc(C)cc2C)cc1 | 153 to 155 |

| SMILES | melting point [°C] |
| --- | --- |
| Cc1ccc(-c2c(C(=O)NCc3cc(C(F)(F)F)cc(C(F)(F)F)c3)n(CCCCO)c(=O)c3ncccc23)cc1 | 187 to 188 |
| Cc1c(-c2ccncc2)oc2c1C(=O)C(C)(C)CC2 | 133 to 134 |
| Cc1nc(N2CCN(CCC3CC3)C2=O)sc1C(=O)NCc1ccc(F)cc1 | 122 to 123 |
| Cc1cnc(Cl)c(C(=O)N(CCO)Cc2cc(C(F)(F)F)cc(C(F)(F)F)c2)c1-c1ccccc1 | 146 to 148 |
| CC(C(N)=O)c1ccc2c(c1)CCc1cccnc1S2 (stereo not drawn) | 174 to 175 |
| N=C(Cc1ccccc1)NS(=O)(=O)C=Cc1ccc(Cl)c(Cl)c1 | 151 to 155 |
| O=C(c1ccc(Br)cc1)c1ccc(O)cc1F | 62 to 63 |
| CNc1ccc(-c2ncn(-c3ccc(OC(F)(F)F)cc3)n2)cc1 | 121 to 123 |
| Cc1[nH]c(=O)[nH]c1C(=O)c1cccs1 | 212 to 215 |
| O=C(O)COc1ccc(SCc2ccc(OCc3ccc(Cl)c(C(F)(F)F)c3)cc2)c2c1CCC2 | 151 to 152 |
| Cn1cc(C2=C(c3c4n(c5ccccc35)CCC(C(N)=O)C4)C(=O)NC2=O)c2ccccc21 (stereo not drawn) | 315 to 316 |
| CCN(CC)CCN1C(=O)C(O)C(c2ccc(OC)cc2)Sc2c1ccc1ccccc21 (stereo not drawn) | 124 to 125 |
| OC(CCCN1CC=C(c2noc(C3CC3)n2)CC1)c1ccc(F)cc1 (stereo not drawn) | 89 to 92 |
| CCCCCc1ccc(CCc2ccc(-c3ccc(Cl)c(F)c3)cc2)cc1 | 153 |
| CCCSC1=Nc2cc(C(=O)O)ccc2SN1Cc1ccc(-c2ccccc2C#N)cc1 | 53 to 68 |
| CCCC(=O)C1=C(O)CC(c2c(C)c(C)c(C)c(C)c2S(C)(=O)=O)CC1=O (stereo not drawn) | 132 |
| Cc1c(C)c2c(c(C)c1NC(=O)NC(C)(C)C)C(O)(c1ccc3ccccc3c1)C(C)(C)O2 (stereo not drawn) | 212 to 214 |
| CCOC(=O)c1[nH]c(=O)c(CC(C)C)[n+]([O-])c1O | 153 to 155 |
| Cc1oc(-c2ccco2)nc1COc1ccc(C=O)cc1Br | 146 to 147 |
| Cc1c(C(=O)c2cccnc2)sc2ccc(C(=O)O)cc12 | 264 to 265 |
| CSc1ccc(C(=O)Cc2ccccc2)cc1Cl | 101 to 102 |
| O=C1CCC(N2C(=O)c3cccc(NCCOCc4ccccc4)c3C2=O)C(=O)N1 (stereo not drawn) | 158 to 160 |
| CC(=O)C(=O)N1CCC[C@H]1C(=O)O | 88 to 89 |
| Cc1cc(SC(=O)N(C)C)c(C(C)(C)C)cc1C=O | 107 to 108 |
| O=C(O)C(CC(=O)N1Cc2ccc(F)cc2C1)Cc1ccccc1 (stereo not drawn) | 136 to 138 |

| SMILES | melting point [°C] |
| --- | --- |
| COC(=O)c1ccc2sc(Cl)nc2c1C | 112 |
| CCc1c(C(=O)N2CCN(CCCCc3c[nH]c4ccc(F)cc34)CC2)nc(-c2ccccc2Cl)n1-c1ccc(Cl)cc1 | 91 to 92 |
| O=C(c1ccc(Br)cc1)C1CCN(CCc2c[nH]c3ccccc23)CC1 | 178 to 180 |
| Cc1c(C#N)cc(C(C)(C)C)c(O)c1C(=O)Nc1ccc(S(=O)(=O)c2ccc(Br)cc2)cc1C(F)(F)F | 221 to 223 |
| Cn1c(C(F)(F)F)cc(=O)n(-c2ccc(Cl)c3nc(N4CCCCC4)sc23)c1=O | 102 to 104 |
| CCCCCCNC(=O)OCCCCCCNC(=O)OC1CCN(C(=O)Oc2ccc(C3CCCCC3)cc2)CC1 | 94 to 96 |
| FC(F)(F)c1cccc(Nc2ncnc(NCc3ccco3)n2)c1 | 207 to 209 |
| CSc1ccc(-n2cnc3ccc(-c4nnc(C5CC5)o4)cc32)cc1 | 198 to 199 |
| CC12CCC3c4ccc(C(=O)O)cc4CCC3C1CCC2C(=O)c1ccco1 (stereo not drawn) | 180 to 182 |
| CN1CCc2c(O)ccc(Cl)c2CC1 | 178 to 180 |
| Cn1nc(Cl)n(-c2ccccc2CBr)c1=O | 132 to 133 |
| Oc1ccc(C2=NCCO2)cc1 | 162 to 163 |
| c1ccc(COc2ccc(-c3nnn[nH]3)cc2)cc1 | 228 |
| CC12CC(F)C3(Br)C(CCC4=CC(=O)CCC43C)C1CCC2=O (stereo not drawn) | 165 to 166 |
| OC(c1cccnc1)c1c[nH]c2ccc(F)cc12 (stereo not drawn) | 131 to 133 |
| COc1cccc(N(CC(=O)O)C(=O)CN2C(=O)c3ccccc3C2=O)c1 | 198 |
| CCCc1cccc2sc(Sc3ccc4c(c3)CC[C@H]3N(C)C(=O)CC[C@]43C)nc12 | 109 to 111 |
| Cc1cc(OC(C)(C)C(=O)O)cc(C)c1C | 77 to 78 |
| CC(O)c1c(NC(=O)C(C)(C)C)cccc1C(F)(F)F (stereo not drawn) | 172 |
| CCNC(=O)c1c(C2CC2)nc(CC)n1Cc1ccc2oc(-c3ccccc3NS(=O)(=O)C(F)(F)F)cc2c1 | 165 to 172 |
| Cc1cc(SCC(=O)NCCc2ccccc2)nc(N)n1 | 114 to 121 |
| Cc1ccc(C(C)(C)C)c(SC2=C(O)CC(CCc3ccccc3)(CCC(C)C)OC2=O)c1 (stereo not drawn) | 46 to 50 |
| CCOC(=O)CC(=O)c1ccc(-c2ccc(Cl)cc2)cc1 | 45 to 50 |
| Clc1cc(-c2ccc(CBr)c(Cl)c2)ccc1CBr | 148 to 154 |
| CCN(CC)C(=CC(=O)OC)n1c(=O)n2nc(C(=O)OC)c(N(CC)CC)c2c2ccccc21 | 178 |

| SMILES | melting point [°C] |
| --- | --- |
| Cc1cc(C(=O)C=C(c2cc(Cl)cc(Cl)c2)C(F)(F)F)ccc1C(=O)O | 123 to 126 |
| CCCCc1cc(Cc2ccc(C(=O)O)cc2)c2ccccc2n1 | 158 |
| Cc1cc(-c2nc3ccccc3c(=O)n2-c2ccc(Br)cc2)ccc1OCCO | 92 to 93 |
| COc1cc(C#N)ccc1Cc1c[nH]c2ccc([N+](=O)[O-])cc12 | 204 to 206 |
| COC(=O)NC(C)(C)c1ccc(C)cc1 | 42 to 43 |
| Cc1nc(N)nc(N)c1C=CC(C)c1ccc(Cl)cc1 (stereo not drawn) | 158 to 165 |
| CCOC(=O)c1ccccc1NCCOc1cccc2ccccc12 | 81 to 83 |
| CCc1nn2c(-c3ccc(OC)cc3Cl)cccc2c1N(CC)CCCF | 76.6 to 79.6 |
| CCCCc1nc2c(n1Cc1ccc(-c3ccccc3S(=O)(=O)NC(=O)NCCC)cc1)C(=CC(=O)OCC)CCS2 | 170 |
| CC(C)(C)[Si](C)(C)Oc1ccc2c(c1)OC(c1ccc(O)cc1)c1c-2sc2cc(O[Si](C)(C)C(C)(C)C)ccc12 (stereo not drawn) | 174 to 175 |
| CCCc1nn(-c2ccc(C(F)(F)F)cn2)cc1CCCOc1nn(CC)cc1CC(=O)O | 105 to 106 |
| Cc1ccc(C(=O)NC(NC(=NC#N)Nc2cccc(F)c2)C(C)(C)C)cc1 (stereo not drawn) | 193 to 194 |
| NC(=O)Cn1cc2c(c1)-c1ccc(Cl)cc1C(c1ccccc1)=NC2 | 236 to 237 |
| Brc1cnc(N=C(c2ccccc2)c2ccccc2)s1 | 109 |
| CC[C@@H]1C(=O)N(Cc2ccc(OC)cc2OC)[C@H]1C(=O)O (relative stereo) | 122 to 123 |
| CC(C#N)(NC(=O)c1c(Cl)cccc1Cl)c1ncc(C(F)(F)F)cc1Cl (stereo not drawn) | 166 to 167 |
| Cc1onc(-c2ccc(C(F)(F)F)cc2)c1CCC(=O)O | 138 to 139 |
| COC(=O)C(C#N)C(=O)c1snc(Cl)c1Cl (stereo not drawn) | 119 to 122 |
| Cc1cc(C)c2ncc(N)c(-c3ccccc3Cl)c2c1 | 152 to 154 |
| O=S1(=O)N=CN(C2CC2)c2cc(Br)c(F)cc21 | 218 to 219 |
| Oc1c(Cc2c[nH]cn2)cccc1C1=NCCN1 | 261 |
| CNC(=S)N1CCC(c2nn(-c3ccc(F)cc3)c3ccccc23)CC1 | 179 to 181 |
| Cc1cc(SCc2sc(-c3ccc(Cl)cc3)nc2C)ccc1OCC(=O)O | 109 |
